Data published in US6784167B2, “17-beta-hydroxysteroid dehydrogenase-II inhibitors” (Bayer Pharmaceuticals Corporation, priority 2000, dated 2004).
Like-named read-outs stand apart in the source and are kept apart here.

Tests used:
17-Beta HSD II Enzyme = biological target: T1, 17-Beta HSD II Enzyme (Homo sapiens, UniProt P37059); test: Primary assay: inhibition of 17-Beta HSD II enzyme (estradiol/NAD, PMS:MTS colorimetric readout at 490 nm); assay type: biochemical; settings: Table 7, baculovirus-expressed recombinant HSD II, estradiol substrate
T1 construct: made in house; host or cells: insect cells (baculovirus)
T1 sequence (P37059 1-387): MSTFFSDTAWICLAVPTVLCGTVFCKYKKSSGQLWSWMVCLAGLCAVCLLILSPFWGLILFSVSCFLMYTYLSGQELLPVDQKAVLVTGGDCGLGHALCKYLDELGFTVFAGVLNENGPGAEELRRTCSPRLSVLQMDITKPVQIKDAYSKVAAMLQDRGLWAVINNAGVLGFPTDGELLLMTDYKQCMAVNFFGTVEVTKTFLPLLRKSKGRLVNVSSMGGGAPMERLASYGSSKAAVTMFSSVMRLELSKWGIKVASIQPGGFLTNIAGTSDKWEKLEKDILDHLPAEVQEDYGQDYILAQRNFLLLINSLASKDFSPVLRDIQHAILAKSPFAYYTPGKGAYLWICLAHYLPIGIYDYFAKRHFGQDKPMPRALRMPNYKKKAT
Method: HSD II protein purification: The method for purification of baculovirus-expressed HSD II was standardized as follows. The insect cell pellet containing recombinant HSD II was lysed in 2.5 volumes of lysis buffer (40 mM Tris, pH 7.5, 1 mM EDTA, 2 mM DTT, 10 uM NAD) containing 500 uM AEBSF, 10 ug/ml aprotinin, 1 uM pepstatin A, and 100 uM leupeptin. The pellet was nutated for 30 min in this buffer. Subsequently, the pellet was homogenized with 15 strokes using a glass and teflon potter. The volume was doubled with a 2× sucrose/NaCl solution (500 mM sucrose, 300 mM NaCl in lysis buffer). After centrifugation at 10,000×g for 30 min, the supernatant was decanted and stored at −20° C. The pellet was resuspended in 2.5 volumes of lysis buffer containing 250 mM sucrose and 150 mM NaCl. Homogenization was repeated (15 strokes) and the suspension was centrifuged again and the decanted supernatant was stored at −20° C. The pellet was resuspended with 2 times the original pellet volume in lysis buffer containing 150 mM NaCl and 1% Triton X-100. The suspension was nutated for 20 min and then homogenized with 5 strokes. Subsequently, the suspension was centrifuged at 30,000×g for 1 h and supernatant was decanted and poured into a chromatographic column. Sephadex G-25 (fine) was added in small amounts, allowing approximately 15 min after each addition for complete swelling. Sephadex addition was continued until all liquid was absorbed. The protein was eluted with 1 void volume of lysis buffer and eluate monitored at 280 nm optical density. The chromatographic procedure was repeated and an equal volume of glycerol was added to the final eluate.
Primary assay: After titration, the HSD II prep, generated with the standard protocol, was diluted to the appropriate concentration (generally 1/15 dilution). 55 μl of assay buffer (50 mM Hepes, pH 8.0) was added to all wells of a 96 well plate. 5 μl of 5% DMSO were added to wells A1-C1, A2-C2, F1-H1, and F2-H2. A 10 μl aliquot of a 10 mM solution in DMSO of each compound was diluted in 190 μl of assay buffer. The plate with these compound dilutions was then mixed for 15 min on a shaker and a 5 μl aliquot from each well was added to the […]. This was followed by 10 μl of HSD II enzyme ( 1/15 dilution)/estradiol mix in assay buffer containing 1% Triton X-100. The estradiol […] from a 20 mM estradiol DMSO stock solution, which was diluted 1/20 (50 μl/ml) in 50 mM Hepes buffer containing 1% Triton X-100. All wells, except F1-H1 and F2-H2, also received 10 μl of 25 mg/ml NAD (SIGMA) in 100 mM Hepes, pH 9. The blank wells F1-H1 and F2-H2 received 10 μl of NAD buffer. 20 μl of PMS:MTS solution (100 μl PMS into 1800 μl MTS, Promega) was added to all wells. The plate was covered with aluminum foil and incubated at room temperature for 1.5 h. The plate was analyzed at 490 nm on a Hewlett Pachard 8453 spectrophotometer and results were calculated.

[1] = read-out: IC50 values ≧2 μM and <10 μM

SMILES	melting point	IC50 (17-Beta HSD II Enzyme; [1])	IC50 (17-Beta HSD II Enzyme)
COc1cccc(-c2ccc(C(O)C3C(c4ccccc4)CC(=O)N3C)o2)c1 (stereo not drawn) [Example 120]	157 °C	2000 to 10000 nM	
CN1C(=O)CC(c2ccccc2)C1C(O)c1ccc(-c2cccc(F)c2)o1 (stereo not drawn) [Example 122]	180 °C	2000 to 10000 nM	
CN1C(=O)CC(c2ccccc2)C1C(O)c1ccc(-c2cccc([N+](=O)[O-])c2)o1 (stereo not drawn) [Example 123]	100 °C	2000 to 10000 nM	
CN1C(=O)CC(c2ccccc2)C1C(O)C#Cc1ccc(F)cc1 (stereo not drawn) [Example 124]	154 to 156 °C		< 500 nM
CN1C(=O)CC(c2ccccc2)C1C(O)Cc1nc(-c2ccccc2)cs1 (stereo not drawn) [Example 138]	189 °C	2000 to 10000 nM	
CCO[C@H](c1cccs1)[C@H]1[C@@H](c2ccccc2)CC(=O)N1C [Example 139]	142 to 144 °C	2000 to 10000 nM	
CN1C(=O)C[C@H](c2ccccc2)[C@@H]1[C@H](OCc1ccccc1)c1cccs1 [Example 140]	129 to 130 °C	2000 to 10000 nM	
CN1C(=O)C[C@H](c2ccccc2)[C@@H]1[C@H](OCCCc1ccccc1)c1cccs1 [Example 141]	76 to 78 °C	2000 to 10000 nM	
CO[C@H](c1cccc(Cl)c1)[C@H]1[C@@H](c2ccccc2)CC(=O)N1C [Example 142]	95 to 96 °C	2000 to 10000 nM	
CN1C(=O)C[C@H](c2ccccc2)[C@@H]1[C@H](O)c1ccc(-c2ccccc2)s1 [Example 145]	216 °C (dec.)		< 500 nM
CN1C(=O)C[C@H](c2ccccc2F)[C@@H]1[C@H](O)c1cccs1 [Example 150]	212 °C		< 500 nM
CN1C(=O)C[C@H](c2ccccc2F)[C@@H]1[C@H](O)c1ccc(-c2cccnc2)s1 [Example 151]	195 to 197 °C		< 500 nM
CN1C(=O)C[C@H](c2ccccc2F)[C@@H]1[C@H](O)c1ccc(-c2ccccn2)s1 [Example 153]	213 to 215 °C		< 500 nM
CN1C(=O)C[C@H](c2ccccc2F)[C@@H]1[C@H](O)c1cccc(Cl)c1 [Example 154]	184 to 185 °C		< 500 nM
CN1C(=O)C[C@H](c2ccccc2F)[C@@H]1[C@H](O)c1ccc(-c2cccs2)s1 [Example 155]	200 to 202 °C		< 500 nM
